The values below come from patent US20130123460A1, “PEPTIDE FOR IMPROVING BIOSTABILITY OF BIOACTIVE SUBSTANCE, AND BIOACTIVE SUBSTANCE HAVING IMPROVED BIOSTABILITY” (priority 2010, published 2013).

Data set [1] has as its target T1, endogenous GLP-1 receptor (Mus musculus, UniProt O35659).
T1 construct: expressing an endogenous GLP-1 receptor; endogenous in cells; host or cells: MIN 6 mouse insulinoma cells (obtained from a person)
T1 sequence (O35659 22-463): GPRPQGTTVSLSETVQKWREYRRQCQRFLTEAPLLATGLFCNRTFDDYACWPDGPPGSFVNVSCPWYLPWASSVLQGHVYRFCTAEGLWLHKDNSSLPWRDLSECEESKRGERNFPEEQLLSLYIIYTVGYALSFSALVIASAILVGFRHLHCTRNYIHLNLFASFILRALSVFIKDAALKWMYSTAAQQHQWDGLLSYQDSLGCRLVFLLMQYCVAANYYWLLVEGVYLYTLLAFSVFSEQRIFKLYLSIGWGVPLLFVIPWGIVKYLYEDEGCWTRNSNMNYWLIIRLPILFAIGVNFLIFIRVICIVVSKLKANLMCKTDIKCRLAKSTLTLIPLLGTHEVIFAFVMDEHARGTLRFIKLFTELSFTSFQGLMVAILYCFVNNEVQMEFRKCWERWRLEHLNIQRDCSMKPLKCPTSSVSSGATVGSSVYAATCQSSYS
Nature of the data set: Insulin secretion capacity of GLP-1 peptide complex in MIN 6 cells.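 On all read-outs here: insulin released into the supernatant of MIN 6 cultures quantified by ELISA, absorbance read at 450 nm with 620 nm reference after substrate addition.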 Format: cell-based. The following applies: for Insulin secretion capacity (% of control): 1000 pM, control = native GLP-1 at 1000 pM; for Insulin secretion capacity (activity) compared with native GLP-1, in words: MIN 6 cells, 30, 100, 300 or 1000 pM (FIG. 2, FIG. 3).
Protocol: MIN 6 was seeded on a multi-plate, which was cultivated at 37° C. for 48 hours. After that, the culture was washed twice with a KRH buffer solution including 2 mM glucose solution (including NaCl 119 mM, KCl 4.74 mM, CaCl2 2.54 mM, MgCl2 1.19 mM, KH2PO4 1.19 mM, 10 mM HEPES buffer solution pH7.3, and 0.1% BSA), and then it was incubated at 37° C. for one hour. […] A supernatant thereof was recovered, and an amount of insulin secreted was measured. The measurement of the insulin was performed in an enzyme-linked immunosorbent assay (ELISA), and an absorbance was measured at 450 nm (a sub-wavelength: 620 nm) after the addition of a substrate.
EC50 values thereof were calculated in the same manner as in Part 2, and the influence on the bioactivity caused by the addition of the partial peptide of the GA module were inspected in detail.
The analysis was performed using the following calculation formula.

A short description of data set [2]: Plasma stability of GLP-1 peptide complex (remaining rate in rat plasma, HPLC/MS). Format: in vitro ADME, SD rats. The conditions noted are these: for remaining at 8 h, 0.5 μmol/L / remaining at 48 h, 0.5 μmol/L: SD.
Description: SD rats were anesthetized with diethyl ether, whole blood was collected and a plasma fraction was separated therefrom.
Data set [3] can be described thus: Plasma stability of amylin complex (remaining rate in rat plasma). Format: in vitro ADME, SD rats. The following applies: for remaining at 0.5 h, 0.5 μmol/L / remaining at 2 h, 0.5 μmol/L / remaining at 8 h, 0.5 μmol/L: SD. On the procedure:
Evaluation was performed in a manner in which after the treatment of the amylin or amylin peptide complex with plasma for a pre-determined time, an amount of change of the amylin peptide (complex) undecomposed was measured by an HPLC/MS.

Setting [4] is: rat plasma, 0.5 μmol/L, 37° C., 48 hours, relative to 0 hour = 100%.
[5] abbreviates: rat plasma, 0.5 μmol/L, 37° C., 8 hours, relative to 0 hour = 100%, read-out: Remaining rate in plasma after 8 hours (%).
Setting [6] is: rat plasma, 0.5 μmol/L, 37° C., 48 hours, relative to 0 hour = 100%, read-out: Remaining rate in plasma after 48 hours (%).

“Also recorded” adds a separate entry of the source. Read-outs that look alike come from different tables or passages of the source. Bridges are numbered along the chain shown (N, C = ends). Where no end group is shown, it is not given here.

What is called EC50 is the concentration at which the effect is half-maximal. Take “[Ser8]-GLP-1(7-35)-GAm(1-46)-NH2 [Comparative Example 4, reference compound]”: in data set [1] (MIN 6 cells, 15 mM glucose), the “Insulin secretion capacity (% of control)” value was determined as 18%. Moreover, the EC50 in data set [1] (MIN 6 cells, 15 mM glucose, concentration for 50% of maximum activity of native GLP-1 at 1000 pM, read-out: EC50 value (nM), insulin secretion capacity) is more than 1 nM. In data set [1], the “Insulin secretion capacity (activity) compared with native GLP-1, in words” value is “remarkably impaired; also recorded: remarkably decreased”. The “Remaining rate in plasma after 48 hours (%)” value in data set [2] (setting [4]) came to 105%.
Regarding `CC[C@H](C)[C@H](NC(=O)CNC(=O)[C@H](CCCCN)NC(=O)[C@@H](NC(=O)[C@H](CC(C)C)NC(=O)[C@H](Cc1c[nH]c2ccccc12)NC(=O)[C@H](C)NC(=O)[C@@H](NC(=O)[C@H](Cc1ccccc1)NC(=O)[C@H](CCC(=O)O)NC(=O)[C@H](CCCCN)NC(=O)[C@H](C)NC(=O)[C@H](C)NC(=O)[C@H](CCC(N)=O)NC(=O)CNC(=O)[C@H](CCC(=O)O)NC(=O)[C@H](CC(C)C)NC(=O)[C@H](Cc1ccc(O)cc1)NC(=O)[C@H](CO)NC(=O)[C@H](CO)NC(=O)[C@@H](NC(=O)[C@H](CC(=O)O)NC(=O)[C@H](CO)NC(=O)[C@@H](NC(=O)[C@H](Cc1ccccc1)NC(=O)[C@@H](NC(=O)CNC(=O)[C@H](CCC(=O)O)NC(=O)[C@H](C)NC(=O)[C@@H](N)Cc1c[nH]cn1)[C@@H](C)O)[C@@H](C)O)C(C)C)[C@@H](C)CC)C(C)C)C(=O)N[C@@H](CC(=O)O)C(=O)N[C@@H](CCC(=O)O)C(=O)N[C@H](C(=O)N[C@@H](CC(C)C)C(N)=O)[C@@H](C)CC` [Example 5, GLP-1(7-35)-GAm(38-42)-NH2], the “Insulin secretion capacity (% of control)” value in data set [1] (MIN 6 cells, 15 mM glucose) turned out to be 112%. Also, the amount remaining at 8 h, 0.5 μmol/L in data set [2] (setting [5]) amounted to 73%. Moreover, the amount remaining at 48 h, 0.5 μmol/L in data set [2] (setting [6]) was found to be 83%.
As to “HSEGTFTSDVSSYLEGQAAKEFIAWLVKGKALIDEILAA-NH2 [Example 4, [Ser8]-GLP-1(7-35)-GAm(35-44)-NH2]”, the “Insulin secretion capacity (% of control)” value in data set [1] (MIN 6 cells, 15 mM glucose) is 115%. In addition, in data set [2] (rat, plasma), the amount remaining at 8 h, 0.5 μmol/L is 77% and the share remaining at 48 h, 0.5 μmol/L was 117%.
For “HSEGTFTSDVSSYLEGQAAKEFIAWLVKGAKTVEGVKALIDEILAA [Example 18, [Ser8]-GLP-1(7-35)-GAm(28-44)]”, the “Insulin secretion capacity (% of control)” value in data set [1] (MIN 6 cells, 15 mM glucose) stood at 139%. In data set [2] (rat, plasma), the fraction remaining at 8 h, 0.5 μmol/L came out at 99% and the amount remaining at 48 h, 0.5 μmol/L came out at 88%.
As to “AKTVEGVKALIDEILAAKCNTATCATQRLANFLVHSSNNFGAILSSTNVGSNTY-NH2 (disulfide 19-24) [Example 30, GAm(28-44)-Amylin(1-37)-NH2]”, in data set [3] (rat, plasma), the share remaining at 0.5 h, 0.5 μmol/L was found to be 88%; the amount remaining at 2 h, 0.5 μmol/L is 67%; the share remaining at 8 h, 0.5 μmol/L came to 9%.
Turning to “HSEGTFTSDVSSYLEGQAAKEFIAWLVKGYKNLINNAKTVEGVKALIDEILAALP-NH2 [Comparative Example 6, [Ser8]-GLP-1(7-35)-GAm(21-46)-NH2, reference compound]”, the “Insulin secretion capacity (% of control)” value in data set [1] (MIN 6 cells, 15 mM glucose) is 45%. Besides, the fraction remaining at 48 h, 0.5 μmol/L in data set [2] (rat, plasma) stood at 84%.
“HSEGTFTSDVSSYLEGQAAKEFIAWLVKGVSDYYKNLINNAKTVEGVKALIDEILAALP-NH2 [Comparative Example 5, [Ser8]-GLP-1(7-35)-GAm(17-46)-NH2, reference compound]”: in data set [1], the EC50 was more than 1 nM and the “Insulin secretion capacity (activity) compared with native GLP-1, in words” value is “hardly detected; also recorded: remarkably decreased”. Moreover, in data set [2] (setting [5]), the amount remaining at 8 h, 0.5 μmol/L turned out to be 105%. Further, in data set [2] (setting [6]), the share remaining at 48 h, 0.5 μmol/L was determined as 105%. The “Remaining rate in plasma after 48 hours (%)” value in data set [2] (setting [4]) turned out to be 105%.
Take “HAEGTFTSDVSSYLEGQAAKEFIAWLVKGGPKALIDEILAA-NH2 [Example 21, GLP-1(7-35)-Gly-Pro-GAm(35-44)-NH2]”: the “Insulin secretion capacity (% of control)” value in data set [1] (MIN 6 cells, 15 mM glucose) came out at 103%. Moreover, in data set [2] (rat, plasma), the amount remaining at 8 h, 0.5 μmol/L was 86% and the amount remaining at 48 h, 0.5 μmol/L amounted to 53%.
For “HAEGTFTSDVSSYLEGQAAKEFIAWLVKGGPSGVKALIDEILAA-NH2 [Example 24, GLP-1(7-35)-Gly-Pro-Ser-GAm(33-44)-NH2]”, the “Insulin secretion capacity (% of control)” value in data set [1] (MIN 6 cells, 15 mM glucose) is listed as 123%. In data set [2] (rat, plasma), the share remaining at 8 h, 0.5 μmol/L was found to be 90% and the fraction remaining at 48 h, 0.5 μmol/L is 40%.
As to “HSEGTFTSDVSSYLEGQAAKEFIAWLVKGVEGVKALIDEILAA-NH2 [Example 11, [Ser8]-GLP-1(7-35)-GAm(31-44)-NH2]”, the “Insulin secretion capacity (% of control)” value in data set [1] (MIN 6 cells, 15 mM glucose) is given as 83%. Further, in data set [2] (rat, plasma), the share remaining at 8 h, 0.5 μmol/L stood at 99% and the fraction remaining at 48 h, 0.5 μmol/L turned out to be 92%.
For the compound `CC[C@H](C)[C@H](NC(=O)[C@H](C)NC(=O)CNC(=O)[C@H](Cc1ccccc1)NC(=O)[C@H](CC(N)=O)NC(=O)[C@H](CC(N)=O)NC(=O)[C@H](CO)NC(=O)[C@H](CO)NC(=O)[C@H](Cc1c[nH]cn1)NC(=O)[C@@H](NC(=O)[C@H](CC(C)C)NC(=O)[C@H](Cc1ccccc1)NC(=O)[C@H](CC(N)=O)NC(=O)[C@H](C)NC(=O)[C@H](CC(C)C)NC(=O)[C@H](CCCNC(=N)N)NC(=O)[C@H](CCC(N)=O)NC(=O)[C@@H](NC(=O)[C@H](C)NC(=O)[C@@H]1CSSC[C@H](NC(=O)[C@@H](N)CCCCN)C(=O)N[C@@H](CC(N)=O)C(=O)N[C@@H]([C@@H](C)O)C(=O)N[C@@H](C)C(=O)N[C@@H]([C@@H](C)O)C(=O)N1)[C@@H](C)O)C(C)C)C(=O)N[C@@H](CC(C)C)C(=O)N[C@@H](CO)C(=O)N[C@@H](CO)C(=O)N[C@H](C(=O)N[C@@H](CC(N)=O)C(=O)N[C@H](C(=O)NCC(=O)N[C@@H](CO)C(=O)N[C@@H](CC(N)=O)C(=O)N[C@H](C(=O)N[C@@H](Cc1ccc(O)cc1)C(N)=O)[C@@H](C)O)C(C)C)[C@@H](C)O` [Comparative Example 16, Amylin(1-37)-NH2], the amount remaining at 0.5 h, 0.5 μmol/L in data set [3] (amylin, rat plasma, 0.5 μmol/L, 37° C., 0.5 hour, read-out: Remaining rate in plasma after 0.5 hour (%)) came to 43%. In data set [3] (amylin, rat plasma, 0.5 μmol/L, 37° C., 2 hours, read-out: Remaining rate in plasma after 2 hours (%)), the share remaining at 2 h, 0.5 μmol/L came out at 15%. For the same compound, in data set [3] (amylin, rat plasma, 0.5 μmol/L, 37° C., 8 hours, read-out: Remaining rate in plasma after 8 hours (%)), the amount remaining at 8 h, 0.5 μmol/L was 0%. Moreover, in data set [3] (amylin, rat plasma, 0.5 μmol/L, 37° C., 2 hours), the “Remaining rate in plasma after 2 hours (%)” value turned out to be 15%.
Take “HSEGTFTSDVSSYLEGQAAKEFIAWLVKGTVEGVKALIDEIL-NH2 [Example 12, [Ser8]-GLP-1(7-35)-GAm(30-42)-NH2]”: in data set [1] (MIN 6 cells, 15 mM glucose), the “Insulin secretion capacity (% of control)” value is 85%. For the same compound, in data set [2] (rat, plasma), the fraction remaining at 8 h, 0.5 μmol/L was 105% and the amount remaining at 48 h, 0.5 μmol/L was found to be 116%.
Take “HSEGTFTSDVSSYLEGQAAKEFIAWLVKGAKTVEGVKALIDEIL-NH2 [Example 13, [Ser8]-GLP-1(7-35)-GAm(28-42)-NH2]”: the “Insulin secretion capacity (% of control)” value in data set [1] (MIN 6 cells, 15 mM glucose) is reported as 105%. In addition, in data set [2] (rat, plasma), the fraction remaining at 8 h, 0.5 μmol/L came to 88% and the amount remaining at 48 h, 0.5 μmol/L was 87%.
